Literature values as cited in patent US9910020B1, “Methods and articles for identifying objects using encapsulated perfluorocarbon tracers” (Copilot Ventures Fund III LLC, priority 2005, dated 2018).

Experiments:
aldrin-epoxidase = conditions: following PFD treatment, rats
[1] = test system: cytochrome P-450 IIA2 (a.k.a. cytochrome P450e); conditions: following PFD treatment, rats; as with phenobarbital induction
cytochrome P-450 = conditions: PFD given to rats; hepatic metabolizing enzymes
[2] = test system: cytochrome P-450 IIA1 (a.k.a. cytochrome P450b); conditions: following PFD treatment, rats; as with phenobarbital induction
[3] = test system: benzphetamine-N-demethylase; conditions: following PFD treatment, rats
cytochrome P450 IV = conditions: following PFD treatment, rats; induced by fatty acids and perfluoronated fatty acids
[4] = test system: cytochrome P-450 IA1 and IA1; conditions: following PFD treatment, rats; induced by 3-methylcholanthrene-type inducers

SMILES: FC1(F)C(F)(F)C(F)(F)C2(F)C(F)(F)C(F)(F)C(F)(F)C(F)(F)C2(F)C1(F)F (stereo not shown) [PFD, perfluorodecalin]
- activity of aldrin-epoxidase (aldrin-epoxidase): increased
- activity of cytochrome P-450 IIA2, increase [1]: approximately two-fold
- induction of cytochrome P-450 (cytochrome P-450): induce cytochrome P-450 in a manner similar to phenobarbital
- activity of cytochrome P-450 IIA1, increase [2]: approximately two-fold
- activity of benzphetamine-N-demethylase [3]: increased
- activity of cytochrome P450 IV (cytochrome P450 IV): unaffected
- activities of cytochrome P-450 IA1 and IA1 [4]: unaffected
